Reference: patent US4618692A, “4-carbamoyloxy-oxazaphosphorins” (Asta-Werke Aktiengesellschaft, priority 1984, dated 1986)

Assay: cytotoxicity in vitro (general statement)
Format: cell-based

Compound: O=P1(N(CCCl)CCCl)NCCCO1 (stereo not shown) [cyclophosphamide, 2-[bis-(2-chloroethyl)-amino]-2-oxo-tetrahydro-2H-1,3,2-oxazaphosphorin]
- cytotoxicity in vitro: practically no cytotoxic effect in vitro
